This note sets out measurements from PubChem BioAssay AID1053169 (The Scripps Research Institute Molecular Screening Center, 2014).

The source made the active and inactive calls. No rule for the calls is given here.

Chain of Methyl-CpG-binding domain protein 2 (Homo sapiens) (Q9UBB5 whole entry, looked up, the tested form may be a part): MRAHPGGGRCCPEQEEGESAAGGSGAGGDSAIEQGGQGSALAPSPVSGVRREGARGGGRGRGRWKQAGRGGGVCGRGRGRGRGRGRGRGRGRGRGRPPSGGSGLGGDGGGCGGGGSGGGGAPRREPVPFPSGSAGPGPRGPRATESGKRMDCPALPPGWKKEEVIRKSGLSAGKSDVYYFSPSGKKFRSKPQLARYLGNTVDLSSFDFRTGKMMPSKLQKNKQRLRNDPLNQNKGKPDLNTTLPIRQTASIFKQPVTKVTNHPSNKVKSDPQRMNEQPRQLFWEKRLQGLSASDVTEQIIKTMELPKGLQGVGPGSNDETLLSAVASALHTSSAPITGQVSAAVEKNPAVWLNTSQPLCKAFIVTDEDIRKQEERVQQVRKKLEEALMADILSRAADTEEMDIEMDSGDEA

The assay concerns the target Methyl-CpG-binding domain protein 2 (Homo sapiens) (UniProt Q9UBB5). The experiment in a line: MBD2-DBD methyl-oligonucleotide interaction blockers – biochemical, TR-FRET, DNA-binding domain, late stage, dose response (AID 1053169). To be noted: TR-FRET MBD2-DBD binding to methylated oligonucleotide. On the technique in general: Time-resolved FRET reads energy transfer from a long-lived donor to a nearby acceptor.
One may read the IC50 as the concentration that inhibits the measured activity by half. `CCOC(=O)c1oc2ccc(CNC(C)(C)C)c(Cl)c2c1C`: the IC50 was > 43.8 µM (inactive).
The value for `CCOC(=O)c1ccc(NC(=O)COc2ccc(CNCCO)cc2OCC)cc1` was > 43.8 µM (inactive).
The result for `CC(C)n1nc(C(=O)Nc2nc3ccccc3[nH]2)c2ccccc2c1=O` reads > 43.8 µM (inactive); that for `Cc1cc(C)n2nc(CC(=O)NCc3ccc(F)cc3)nc2n1`, > 43.8 µM (inactive).
Regarding `CC(=O)N(c1ccccc1)c1nc(/C=C/C(=O)Nc2c(C)cc(C)cc2C)cs1`, the IC50 was > 43.8 µM (inactive).
The value for `CSc1ccc(OC2CCCCC2NS(=O)(=O)c2ccccc2)cc1` (stereo not given) was > 43.8 µM (inactive); that for `COc1ccc(NC(=O)CN2CCN(c3ccccc3C)CC2)cc1` was > 43.8 µM (inactive); that for `CC(C)C(=O)Nc1nnc(SCC(=O)NC2CCCC2)s1` was > 43.8 µM (inactive).
The result for `CCc1cccc(OCC(=O)Nc2ccc(S(=O)(=O)Nc3ccccn3)cc2)c1` reads > 43.8 µM (inactive); that for `Cc1ccc(Cl)cc1N1CCN(S(=O)(=O)c2ccc3c(c2)NC(=O)C(C)C(=O)N3)CC1` (stereo not given), > 43.8 µM (inactive); that for `COc1ccc(NC(=O)Cn2cc(C(C)=O)c3ccccc32)cc1`, > 43.8 µM (inactive).
The value for `O=C(CSc1nc(-c2ccccc2)c(-c2ccccc2)o1)N1CCOCC1` was > 43.8 µM (inactive); that for `O=C(CSc1ccccn1)Nc1ccc(N2CCOCC2)cc1` was > 43.8 µM (inactive).
For `COc1ccc(NC(=O)COC(=O)CCc2ccc(S(=O)(=O)N3CCOCC3)cc2)cc1Cl`, the IC50 was > 43.8 µM (inactive).
For the molecule `CSc1ccc(OC2CCCCC2NS(=O)(=O)c2ccc(Cl)cc2)cc1` (stereo not given), the IC50 was > 43.8 µM (inactive).
The value for `CCOc1ccc(S(=O)(=O)N2CCCC(C(=O)NCC3CCCO3)C2)cc1Cl` (stereo not given) was > 43.8 µM (inactive).
The result for `COc1ccc(C(=O)N2CCC(C(=O)Nc3ccc(C)cc3)CC2)cc1` reads > 43.8 µM (inactive); that for `O=C(Nc1ccc(OCc2ccccc2)cc1)c1ccccc1`, > 43.8 µM (inactive); that for `CCCCn1c(NC(C)CC)nc2c1c(=O)[nH]c(=O)n2C` (stereo not given), > 43.8 µM (inactive).
The value for `COc1ccccc1C(=O)COC(=O)c1ccc(N(C)C)cc1` was > 43.8 µM (inactive).
